# Source: patent publication US7022648B2, “Plant seeds treated with N,N′-substituted ureas” (Stoller Enterprises, Inc., priority 1996, dated 2006)
# Several values for one entry are separate records, joined by “and”; a condition that tells them apart may be missing. Equal values may be shown once.
# How the values were obtained:
# Type in all cases: in vivo
# [1] = test system: Peanuts; experiment: Greenhouse pot test, foliar treatment 0.01 M diformylurea; details: foliar treated, three leaf stage, 30 days
# Method: (§1) Based upon the foregoing preliminary work, additional experiments to investigate the effect of diformylurea on other plant species was undertaken. These experiments were also designed to compare the effect of treating seeds as described above with foliar treatment. Wheat, corn and peanuts were selected for the next phase of this work. Diformylurea was prepared by reacting formic acid and urea at a molar ratio of 2:1 as described above. An aqueous solution containing diformylurea at a concentration of 0.01 M was prepared. For the seed treatment portion of the experiments, the seeds to be treated were soaked in the foregoing solution for about 24 hours before planting. The control seeds were again soaked in water for the same time. Both control and treated seeds were planted in 1 gallon greenhouse pots. Five seeds were planted in each pot. Each pot was thinned to two plants after germination. For the foliar treatment portion of the experiment, plants grown from untreated seeds were sprayed with a solution containing 0.01 M. diformylurea at the three leaf stage. All plants were watered and fertilized as required. Thirty days after planting, the plants were harvested and the roots and shoots examined. The mass of both the roots and shoots and the total mass of the plant in each pot were determined.
# [2] = test system: Corn; experiment: Preliminary greenhouse pot test, seeds soaked in diformylurea solution, root and shoot mass; details: seed soak 24 h, 30 days
# Method: (§2) In a preliminary experiment to determine the agricultural value of the N,N′-diformylurea prepared above, a concentrate was prepared by mixing 200 grams diformylurea and 200 grams formic acid, adjusting the ph to about 5.5 by the addition of potassium hydroxide and adding sufficient water to make 1 liter. […] Low, medium and high dilution aqueous solutions were prepared by diluting, respectively, 0.8 grams, 8.0 grams and 40.0 grams of the concentrate per liter of final solution. […] The foregoing solutions were used to coat corn, soybean, cotton and rice seeds prior to planting. Coating was achieved by soaking the seeds in the foregoing solutions for about 24 hours. Sufficient solution was used to keep the seeds immersed. Control seeds were soaked in water for the same time. Untreated or control seeds, together with seeds treated by the low, medium and high dilution solutions, were planted in 1 gallon greenhouse pots. Six pots were used for each dilution or control with five seeds planted per pot. The plants were thinned to two plants per pot after emergence. The plants were watered and fertilized as required. After 30 days the plants were harvested and the roots and shoots examined. The roots and shoots were weighed separately and the root/shoot ratio determined. The treated plants were generally characterized by both greater root mass and shoot mass when compared to the controls. The root/shoot ratio for most of the treated plants was greater than that for the controls.
# [3] = test system: Soybean; experiment: as above; details: seed soak 24 h, 30 days
# Method: as §2
# [4] = test system: Cotton; experiment: as above; details: seed soak 24 h, 30 days
# Method: as §2
# [5] = test system: Rice; experiment: as above; details: seed soak 24 h, 30 days
# Method: as §2
# [6] = test system: Corn; experiment: Greenhouse pot test, seed treatment 0.01 M diformylurea; details: seed treated, 24 h soak, 30 days
# Method: as §1
# [7] = test system: Wheat; experiment: as above; details: seed treated, 24 h soak, 30 days
# Method: as §1
# [8] = test system: Peanuts; experiment: as above; details: seed treated, 24 h soak, 30 days
# Method: as §1
compound,measurement,setting,value
"O=CNC(=O)NC=O [diformylurea, N,N′-diformylurea]","Percent Change v. Control, Roots",[1],92%
same,"Percent Change v. Control, Shoots",[1],108%
same,"Percent Change v. Control, Total",[1],100%
same,Root/Shoot Ratio,[1],1.02
same,"Roots (gm), Average",[1]; average of samples,32.74 gm
same,"Shoots (gm), Average",[1]; average of samples,32.15 gm
same,"Total (gm), Average",[1]; average of samples,64.89 gm
same,Roots (gm),[1]; single sample (pot),27.67 gm and 35.04 gm and 37.38 gm and 31.10 gm and 31.69 gm and 33.55 gm
same,Shoots (gm),[1]; single sample (pot),28.38 gm and 30.34 gm and 33.84 gm and 32.35 gm and 36.17 gm and 31.82 gm
same,Total (gm),[1]; single sample (pot),56.05 gm and 65.38 gm and 71.22 gm and 63.45 gm and 67.86 gm and 65.37 gm
same,crown roots on plants grown from treated seeds,[2],crown roots were noticed
same,Root/Shoot Ratio,"[2]; High dilution, 0.068 M",1.09
same,Roots (gm),"[2]; High dilution, 0.068 M",9.60 gm
same,Shoots (gm),"[2]; High dilution, 0.068 M",8.80 gm
same,Total (gm),"[2]; High dilution, 0.068 M",18.40 gm
same,Root/Shoot Ratio,"[2]; Low dilution, 0.0013 M",1.04
same,Roots (gm),"[2]; Low dilution, 0.0013 M",9.80 gm
same,Shoots (gm),"[2]; Low dilution, 0.0013 M",9.40 gm
same,Total (gm),"[2]; Low dilution, 0.0013 M",19.20 gm
same,Root/Shoot Ratio,"[2]; Medium dilution, 0.013 M",1.08
same,Roots (gm),"[2]; Medium dilution, 0.013 M",10.40 gm
same,Shoots (gm),"[2]; Medium dilution, 0.013 M",9.60 gm
same,Total (gm),"[2]; Medium dilution, 0.013 M",20.00 gm
same,Root/Shoot Ratio,"[3]; Low dilution, 0.0013 M",0.93
same,Roots (gm),"[3]; Low dilution, 0.0013 M",4.60 gm
same,Shoots (gm),"[3]; Low dilution, 0.0013 M",4.90 gm
same,Total (gm),"[3]; Low dilution, 0.0013 M",9.50 gm
same,Root/Shoot Ratio,"[3]; Medium dilution, 0.013 M",1.20
same,Roots (gm),"[3]; Medium dilution, 0.013 M",4.90 gm
same,Shoots (gm),"[3]; Medium dilution, 0.013 M",4.10 gm
same,Total (gm),"[3]; Medium dilution, 0.013 M",9.00 gm
same,Root/Shoot Ratio,"[4]; High dilution, 0.068 M",0.73
same,Roots (gm),"[4]; High dilution, 0.068 M",5.07 gm
same,Shoots (gm),"[4]; High dilution, 0.068 M",6.90 gm
same,Total (gm),"[4]; High dilution, 0.068 M",11.97 gm
same,Root/Shoot Ratio,"[4]; Low dilution, 0.0013 M",1.46
same,Roots (gm),"[4]; Low dilution, 0.0013 M",7.85 gm
same,Shoots (gm),"[4]; Low dilution, 0.0013 M",5.38 gm
same,Total (gm),"[4]; Low dilution, 0.0013 M",13.23 gm
same,Root/Shoot Ratio,"[4]; Medium dilution, 0.013 M",1.08
same,Roots (gm),"[4]; Medium dilution, 0.013 M",4.50 gm
same,Shoots (gm),"[4]; Medium dilution, 0.013 M",5.25 gm
same,Total (gm),"[4]; Medium dilution, 0.013 M",9.75 gm
same,crown roots on plants grown from treated seeds,[5],crown roots were noticed
same,Root/Shoot Ratio,"[5]; High dilution, 0.068 M",2.10
same,Roots (gm),"[5]; High dilution, 0.068 M",0.82 gm
same,Shoots (gm),"[5]; High dilution, 0.068 M",0.39 gm
same,Total (gm),"[5]; High dilution, 0.068 M",1.21 gm
same,Root/Shoot Ratio,"[5]; Low dilution, 0.0013 M",1.78
same,Roots (gm),"[5]; Low dilution, 0.0013 M",0.61 gm
same,Shoots (gm),"[5]; Low dilution, 0.0013 M",0.34 gm
same,Total (gm),"[5]; Low dilution, 0.0013 M",0.95 gm
same,Root/Shoot Ratio,"[5]; Medium dilution, 0.013 M",1.86
same,Roots (gm),"[5]; Medium dilution, 0.013 M",3.07 gm
same,Shoots (gm),"[5]; Medium dilution, 0.013 M",1.84 gm
same,Total (gm),"[5]; Medium dilution, 0.013 M",4.91 gm
same,"Percent Change v. Control, Roots",[6],30%
same,"Percent Change v. Control, Shoots",[6],16%
same,"Percent Change v. Control, Total",[6],24%
same,Root/Shoot Ratio,[6],1.80
same,"Roots (gm), Average",[6]; average of samples,58.92 gm
same,"Shoots (gm), Average",[6]; average of samples,32.73 gm
same,"Total (gm), Average",[6]; average of samples,91.65 gm
same,"Percent Change v. Control, Roots",[7],117%
same,"Percent Change v. Control, Shoots",[7],266%
same,"Percent Change v. Control, Total",[7],135%
same,Root/Shoot Ratio,[7],4.39
same,"Roots (gm), Average",[7]; average of samples,45.40 gm
same,"Shoots (gm), Average",[7]; average of samples,10.35 gm
same,"Total (gm), Average",[7]; average of samples,55.74 gm
same,"Percent Change v. Control, Roots",[8],17%
same,"Percent Change v. Control, Shoots",[8],31%
same,"Percent Change v. Control, Total",[8],24%
same,Root/Shoot Ratio,[8],0.98
same,"Roots (gm), Average",[8]; average of samples,19.93 gm
same,"Shoots (gm), Average",[8]; average of samples,20.30 gm
same,"Total (gm), Average",[8]; average of samples,40.23 gm
same,Roots (gm),[8]; single sample (pot),20.11 gm and 22.04 gm and 21.60 gm and 16.74 gm and 16.46 gm and 22.65 gm
same,Shoots (gm),[8]; single sample (pot),20.46 gm and 22.34 gm and 19.03 gm and 17.77 gm and 20.20 gm and 22.00 gm
same,Total (gm),[8]; single sample (pot),40.57 gm and 44.38 gm and 40.63 gm and 34.51 gm and 36.66 gm and 44.65 gm
